The text below walks through data of EP1296995B1, “3'-PRODRUGS OF 2'-DEOXY-BETA-L-NUCLEOSIDES” (priority 2000, dated 2001).

Structures can show the parent of a compound that is named as a salt. Where two headings read alike, the source gives them in different places.

One data set concerns HepG2 cells. Put plainly: in vitro. The source says: (§1) These studies included analysis of lactic acid production, mtDNA content and determination of changes in morphology (e.g., loss of cristae, matrix dissolution and swelling, and lipid droplet formation) of mitochondrial ultrastructure.
The nature of data set [1]: in vitro. Particulars: human, hepg2 cells.
From the text: as §1

A short description of data set [2]: Oral bioavailability of L-dC via dival-L-dC (HPLC). Particulars: cynomolgus monkey. The source says: The drug was quantitated in plasma and in urine using HPLC analysis.
The nature of data set [3]: in vivo. The conditions noted are these: rat, po.
Data set [4] is described as follows: Log P' study, MilliQ water / octanol-1. The conditions noted are these: for P' (B/A'): MilliQ water pH 6.5 (A') / octanol-1 (B), Study 1 and Study 2. It counts as physicochemical.
Data set [5] is described as follows: in vivo. The conditions noted are these: monkey. An excerpt: […]. […] Clinical observations were documented daily. Blood samples for hematology and serum chemistries were collected and body weight measured before treatment on Days 1, 4, 7, 10, and 14, and before necropsy on Day 17. After completion of Day 17 evaluations, all animals were euthanized and a complete necropsy performed, including macroscopic examination and comprehensive tissue collection.

Data set [6] in a line: in vivo. The conditions noted are these: rat. As for the experimental part:
Clinical observations were documented once daily. Body weights were documented before dosing on Days 1, 8, 15, 22, and 28 and before necropsy on Day 29. Food consumption was documented weekly. Blood samples for hematology and serum chemistries also were collected before necropsy on Day 29.
Toxicokinetics. An additional 54 animals (27 males and 27 females) had samples collected for pharmacokinetic analyses on Days 1 and 28. […] Analysis of the 500 mg/kg group is in progress.

Data set [7] can be described thus: in vivo. The conditions noted are these: monkey, po.
The nature of data set [8]: in vitro. Particulars: human, plasma.
Data set [9] in a line: physchem. As to the method:
To 1 mL of this solution, 1 mL of octanol-1 (B) saturated with 0.02 M phosphate buffer solution (A) was added. The resultant mixture was shaken and centrifuged; three samples from each phase was collected and analyzed by HPLC, as shown in Table 10. […]
The solution was then saturated with octanol-1 (B). To 1 mL of this solution, 1 mL of octanol-1 (B) saturated with 0.02 M phosphate buffer solution (A) was added. The resultant mixture was shaken and centrifuged; three samples from each phase was collected and analyzed by HPLC, as shown in Table 11. […]

The nature of data set [10]: in vivo. Also noted: species or system cynomologus monkeys (macaca fascicularis). The conditions noted are these: cynomolgus monkey. The source says: The drug was quantitated in plasma and urine with a liquid chromatography-mass spectrometry (LC-MS) technique.
Data set [11] in a line: in vitro. The conditions noted are these: human, plasma. The source holds these as a separate data set.
The nature of data set [12]: in vivo. The conditions noted are these: monkey, po. The source holds these as a separate data set.
Data set [13] addresses virion-associated DNA polymerase of WHV. Put plainly: Endogenous polymerase assay, virion-associated DNA polymerase. It counts as biochemical.
Data set [14] relates to Monkey Primary Hepatocytes. Put plainly: Intracellular metabolism of L-dC in monkey primary hepatocytes. Particulars: 10 µM L-dC, 24 hours, n=1.
The next data set has as its system Rats Primary Hepatocytes. Nature of the data set: Intracellular metabolism of L-dC in rat primary hepatocytes. The conditions noted are these: 10 µM L-dC, 24 hours.
The conditions of data set [15]: monkey, in vivo.
The next data set has as its system HBV. Put plainly: Antiviral activity against HBV in 2.2.15 cells (reduction of HBV DNA). Particulars: 2.2.15 cells.
Data set [16] is described as follows: physchem. The conditions noted are these: water.
A short description of data set [17]: Stability study in buffers at various pH. It counts as physicochemical.
The conditions of data set [18]: monkey, in vivo. The source holds these as a separate data set.
The conditions of data set [19]: rhesus monkey, in vivo, po.
Where [20] appears, read: 0.02 m phosphate buffer, pH 7.2.

On to `Nc1ccn([C@H]2CC[C@@H](CO)O2)c(=O)n1` [ddC, zalcitabine], for which, in the data set with HepG2 cells, the “Lipid Droplet Formation” value is given as “negative” and the “Mitochondrial Morphology” value is “abnormal”. Besides, in the data set “in vitro [1]”, the activity is 95 ± 4.4%, the activity at 336 h amounted to 13% and the inhibition at 336 h is 87%.
On to `CC(C)[C@H](N)C(=O)OC[C@@H]1O[C@H](n2ccc(N)nc2=O)C[C@H]1OC(=O)[C@@H](N)C(C)C` [3'5'-dival-L-dC, 3,5'-L-Valine ester of 2'-deoxy-β-L-cytidine hydrochloride], for which, in data set [2] (urine, 10 mg/kg), the dose excreted at 8 h was around 26%. In [2] (urine, 10 mg/kg), this compound yielded a dose excreted at 72 h of 31%. Further, the NOAEL at 360 h in the data set “in vivo [3]” stood at 2000 mg/kg. Also, the “P' (B/A')” value in data set [4] is 1.80 x10^-3; in data set [4] (listed as L-dC-3',5'-divalinyl ester hydrochloride, hydrochloride), 1.77 x 10^-3. Also, the “conversion to the monoesters or L-dC during log P' experiment” value in data set [4] (aqueous or organic phases, MilliQ water) was “No conversion”. Besides, the “RBC, HGB and HCT lower at Day 17 compared to Day 1” value in “in vivo [5]” is on record as 15-27%. The “decrease of BUN at Day 17 compared to Day 1” value in the data set “in vivo [5]” is given as around 43%. In addition, the NOAEL in the data set “in vivo [5]” (po) amounted to 2000 mg/kg. In addition, the NOAEL at […] in “in vivo [6]” (po) was below 500 mg/kg. Moreover, the Fa in the data set “in vivo [7]” was around 73%. Also, the bioavailability in “in vivo [7]” came out at 72.7 ± 22%. Further, the half-life in the data set “in vitro [8]” was around 0.65 h. In addition, the logD in the data set “physchem [9]” (setting [20]) was -0.86. Also, the degraded was found to be 14% in the data set “physchem [9]” (octanol-1, pH 7.2) and 50% in the data set “physchem [9]” (phosphate buffer, pH 7.2). Besides, the entries for the “share of drug excreted in the urine (total recovered dose)” value (“share … (total recovered dose)” for short) in the data set “in vivo [10]” (iv) and in the data set “in vivo [10]” (po) were “approximately 0.15%” and “No dival-L-dC was detected”, respectively. This compound also gave a fraction unbound in “in vitro [11]” of 0.867. Also, the NOAEL at 600 h in the data set “in vivo [12]” was below 500 mg/kg.
`O=c1[nH]c(=O)n([C@@H]2O[C@H](CO)[C@@H](O)[C@@H]2F)cc1I` [FIAU, fialuridine]: in the data set on HepG2 cells (Conc. (µM): L-dC 10, FIAU 10, ZDV 50, ddC 1), the “Lipid Droplet Formation” value is on record as “positive”. Besides, the “Mitochondrial Morphology” value with HepG2 cells (Conc. (µM): L-dC 10, FIAU 10, ZDV 50, ddC 1, electron microscopy) is given as “abnormal”. Also, the “increase of lactic acid production compared to vehicle control” value in the data set with HepG2 cells (HepG2 cells) is reported as 100%. Also, in the data set “in vitro [1]”, the activity stood at 203% and the activity at 336 h stood at 86%.
`Nc1ccn([C@@H]2C[C@@H](O)[C@H](COP(=O)(O)OP(=O)(O)OP(=O)(O)O)O2)c(=O)n1` [L-dC-TP]: the IC50 in data set [13] (endogenous polymerase assay, read-out: IC50 viral DNA pol (WHV DNA polymerase)) worked out at 1.82 ± 0.23 µM. Also, the intracellular metabolite level in data set [14] amounted to 39.3 µM; with Rats Primary Hepatocytes, 14.2 ± 3.1 µM.
In the case of `CC(=O)OC[C@@H]1O[C@H](n2ccc(N)nc2=O)C[C@H]1OC(C)=O` [3'5'-diacetyl-L-dC, 3',5'-Di-O-acetyl-2'-deoxy-β-L-cytidine], the bioavailability in “in vivo [7]” amounted to 23 ± 6.5%. The compound also gave a logD in “physchem [9]” (setting [20]) of -0.74.
Turning to `O=c1ccn([C@@H]2C[C@@H](O)[C@H](COP(=O)(O)OP(=O)(O)OP(=O)(O)O)O2)c(=O)[nH]1` [L-dU-TP, β-L-2'-deoxyuridine 5'-triphosphate], in data set [13] (target as printed, read-out: IC50 in vitro against hepatitis B virus DNA polymerase), the IC50 is 5.26 µM. Moreover, the intracellular metabolite level amounted to 21.9 µM in [14] and 46.9 ± 5.2 µM in the data set with Rats Primary Hepatocytes.
`CC(C)[C@H](N)C(=O)OC[C@@H]1O[C@H](n2ccc(N)nc2=O)C[C@H]1O` [5'-val-L-dC, 5'-L-valine ester of 2'-deoxy-β-L-cytidine hydrochloride]: the “Tlast (median)” value in [15] is 10 h. Further, the “median Tmax” value in data set [15] (po) came to 1 h. Moreover, in “in vivo [6]”, the “AUClast higher for females than males” value is reported as 25-50% and the “AUClast higher on Day 28 vs. Day 1” value is 30-62%. Besides, the Tmax in “in vivo [6]” (po) is 1 to 2 h. The bioavailability in “in vivo [7]” stood at 39 ± 11.4%. Besides, in “in vivo [10]” (iv), the “share … (total recovered dose)” value is listed as around 3.7%. Besides, the concentration at 2 h in “in vivo [10]” (iv, 10 mg/kg) turned out to be 80 nM. Also, the “share … (total recovered dose)” value in the data set “in vivo [10]” (po) was around 0.2%.
Regarding `Nc1ccn([C@@H]2CS[C@H](CO)O2)c(=O)n1` [3TC, (-)-enantiomer of cis-2-hydroxymethyl-5-(cytosin-1-yl)-1,3-oxathiolane, reference compound], in the data set on HBV, the “S.I. (CC50/EC90)” value is > 5,000.
Consider `Nc1ccn([C@H]2C[C@H](O)[C@@H](CO)O2)c(=O)n1` [D-dC, D-Deoxycytidine], for which, in the data set “physchem [9]” (setting [20]), the “P(B/A)” value was found to be 0.039 and the “log P (octanol/water)” value is recorded as -1.41.
As for `CC(C)[C@H](N)C(=O)O[C@@H]1C[C@@H](n2ccc(N)nc2=O)O[C@H]1CO` [3'-val-L-dC, 3'-valinyl ester of β-L-deoxyribocytosine], the solubility in the data set “physchem [16]” was above 408 mg/mL. For the same compound, the half-life in [17] (0.2m tris-hcl, pH 7.4) was 7 h; in [17] (pH 1.2 (135 mM KCl-HCl buffer solution), read-out: half-life), above 48 h. This compound also returned a bioavailability in “in vivo [7]” of 85.1 ± 24.5%. This compound also returned a logD in the data set “physchem [9]” (0.02 m phosphate buffer, pH 7.2, log P (octanol/water)) of -1.53.
Turning to `CC(=O)Nc1ccn([C@@H]2C[C@@H](O)[C@H](CO)O2)c(=O)n1` [N^4-acetyl-L-dC, N^4-Acetyl-2'-deoxy-β-L-cytidine], in data set [17] (pH 1.2, read-out: half-life), the half-life turned out to be 0.833 h.
With `O=c1ccn([C@@H]2C[C@@H](O)[C@H](CO)O2)c(=O)[nH]1` [L-dU, β-L-2'-deoxyuridine], in data set [2] (in vivo), the “share of drug excreted in the urine (recovered dose)” value was “approximately 10%”. Also, the “share of the dose recovered in the urine” value in [18] (iv, 10 mg/kg) stood at 4.0%. Further, the “share … (total recovered dose)” value in data set [18] (po) is reported as 29%; in “in vivo [10]” (iv), “approximately 2.5%”; in the data set “in vivo [10]” (po) it was “approximately 2.5%”; in data set [19], 23%. Besides, the concentration in “in vivo [10]” (iv, 10 mg/kg) was 220 to 880 nM; in “in vivo [10]” (po, 10 mg/kg, 8 h), 390 nM.
